pEC50, pIC50: −log10 of the molar value.
Tested on: 301 cancer cell lines from different tumor types (OncoPanel; HD Biosciences)
Assay: 2D cell viability inhibition assay (CellTiter-Glo) in cancer cell line panel
Type: cell-based
Parameters: key to AUC: AUC as fraction of the no-inhibition area (dose range × 0–100 % of control)
Settings: for Emax: in %
Description: In a larger screening study, compound 1 was evaluated across a broad cancer cell line panel (OncoPanel; HD Biosciences) composed of 301 cancer cell lines from different tumor types.
2D cell viability inhibition assays were performed in multiwell plates seeded with cells from the panel. After seeding, the plates were cultured overnight in a humidified incubator at 37° C. to promote adherence. Assays were initiated in individual wells by adding either DMSO as a vehicle control, growth media as a blank, or serially diluted compound 1 (10 μM to 0.0005 μM with 1:3 serial dilution). Cultures were incubated for 168 hours after which the number of viable cells in each test well was assessed using the CellTiter-Glo® Luminescent Cell Viability Assay. Luminescence readouts were performed using an EnVision® Multilabel Reader and the compound 1 readouts were normalized to the DMSO control readouts, expressed as a percent of the control. Outliers were flagged out by visual inspection. Percent of control was plotted against the corresponding compound 1 concentration and the absolute IC50 value was determined using four-parameter logistic non-linear regression as the concentration where inhibition was 50% of the control. For maximum inhibition <50%, the absolute IC50 was reported as >10. In addition to EC50 and IC50, AUC was determined and was normalized to the area corresponding to theoretical no-inhibition (the rectangular area defined by the compound dose range and 0 to 100 in y). Emax was recorded as the minimum in y with the compound dose range. For those cell lines where Emax>40, EC50 was manually set to 10 μM. A hierarchical clustering algorithm based on Euclidean distance between the standardized input values and “Ward.D” method as implemented in R hclust function was used to visualize the compound 1 cellular potency data. The sensitive/moderate/resistant calls for each cell line was determined by visually inspecting the resulting clustering dendrogram. All the analyses were done in R Core Team.

## CC(C)c1ccc(N(C)c2ccc3c(c2)OCC[C@H]3CNc2cnccc2C(=O)O)cc1 [Compound 1, 3-({[(4R)-7-{methyl[4-(propan-2-yl)phenyl]amino}-3,4-dihydro-2H-1-benzopyran-4-yl]methyl}amino)pyridine-4-carboxylic acid]
NCIH23 cell line
  AUC: 0.6227
NCIH69 cell line
  AUC: 0.2802
  Emax: 1.271
NCIH82 cell line
  AUC: 0.2502
NCIH209 cell line
  AUC: 0.1869
  Emax: 8.61
NCIH358 cell line
  AUC: 0.4332
  Emax: 22.66
NCIH441, lung, adenocarcinoma, 168 hours
  AUC: 0.7804
NCIH446 cell line
  AUC: 0.5837
NCIH460 cell line
  AUC: 0.3714
  Emax: 7.705
NCIH508 cell line
  AUC: 0.3378
  Emax: 3.207
NCIH520 cell line
  AUC: 0.3237
NCIH522 cell line
  AUC: 0.4447
  Emax: 15.14
NCIH524 cell line
  AUC: 0.3617
  Emax: 12.7766
NCIH596, lung, mixed adenosquamous carcinoma, 168 hours
  AUC: 0.8151
NCIH647 cell line
  AUC: 0.4942
  Emax: 28.29
NCIH661 cell line
  AUC: 0.3608
  Emax: 9.075
NCIH716 cell line
  AUC: 0.3799
  Emax: 12.75
NCIH929 cell line
  AUC: 0.5285
NCIH1048 cell line
  AUC: 0.1479
NCIH1092 cell line
  AUC: 0.479
  Emax: 26.4
NCIH1155 cell line
  AUC: 0.07571
NCIH1299 cell line
  AUC: 0.3508
  Emax: 12.65
NCIH1355 cell line
  AUC: 0.5594
NCIH1395, lung, adenocarcinoma, 168 hours
  AUC: 0.8542
NCIH1435, lung, non-small cell carcinoma, 168 hours
  AUC: 0.7612
NCIH1436 cell line
  AUC: 0.4953
  Emax: 34.4
NCIH1437 cell line
  AUC: 0.4082
  Emax: 14.97
NCIH1563, lung, adenocarcinoma, 168 hours
  AUC: 0.9652
NCIH1573, lung, adenocarcinoma, 168 hours
  AUC: 0.7482
NCIH1618 cell line
  AUC: 0.02266
  pEC50: 9.29
  pIC50: > 9.30
NCIH1623 cell line
  AUC: 0.522
NCIH1650, lung, bronchioloalveolar adenocarcinoma, 168 hours
  AUC: 0.8746
NCIH1666 cell line
  AUC: 0.2983
NCIH1694 cell line
  AUC: 0.3214
  Emax: 21.59
NCIH1703 cell line
  AUC: 0.4204
  Emax: 21.7324
NCIH1734 cell line
  AUC: 0.6734
NCIH1755, lung, adenocarcinoma, 168 hours
  AUC: 1.29
NCIH1793 cell line
  AUC: 0.4916
  Emax: 27.48
NCIH1836 cell line
  AUC: 0.3332
NCIH1838, lung, non-small cell carcinoma, 168 hours
  AUC: 0.7858
NCIH1930 cell line
  AUC: 0.5402
NCIH1944 cell line
  AUC: 0.5809
  Emax: 37.59
NCIH1975 cell line
  AUC: 0.529
NCIH2009, lung, adenocarcinoma, 168 hours
  AUC: 0.7914
NCIH2023 cell line
  AUC: 0.2884
NCIH2081 cell line
  AUC: 0.3049
NCIH2087 cell line
  AUC: 0.3822
NCIH2122 cell line
  AUC: 0.5019
NCIH2171 cell line
  AUC: 0.7416
NCIH2172 cell line
  AUC: 0.6812
NCIH2228 cell line
  AUC: 0.6864
NCIH2286 cell line
  AUC: 0.2917
NCIH2291 cell line
  AUC: 0.3822
  Emax: 13.48
NCIH2347 cell line
  AUC: 0.5778
  Emax: 40.29
NCIN87 cell line
  AUC: 0.3132
NIHOVCAR3, ovary, NS, 168 hours
  AUC: 0.7771
NMCG1, central nervous system, NS, 168 hours
  AUC: 0.7013
NOMO1 cell line
  AUC: 0.3293
NUGC3 cell line
  AUC: 0.3824
  Emax: 16
NUGC4 cell line
  AUC: 0.4642
  Emax: 24.53
OCUM1, OCUM1 cell line
  pEC50: ≤ 5.00
  pIC50: 8.11
OCUM1 cell line
  AUC: 0.5324
  Emax: 32.42
ONS76, central nervous system, NS, 168 hours
  AUC: 0.7336
OSRC2 cell line
  AUC: 0.6658
OVISE cell line
  AUC: 0.5405
  pIC50: 7.62
P31FUJ cell line
  AUC: 0.286
PANC1 cell line
  AUC: 0.5543
PANC0213 cell line
  AUC: 0.5829
  pEC50: 7.67
  pIC50: 7.45
PC3 cell line
  AUC: 0.502
  Emax: 26.1466
PECAPJ34CLONEC12 cell line
  AUC: 0.311
  pEC50: 8.42
  pIC50: 8.40
PF382 cell line
  AUC: 0.2761
PLCPRF5 cell line
  AUC: 0.5107
RCM1 cell line
  AUC: 0.6711
RD cell line
  AUC: 0.4703
  Emax: 27.42
REH cell line
  AUC: 0.0957
RERFLCMS cell line
  AUC: 0.6415
  pEC50: 7.63
  pIC50: 7.18
RKO cell line
  AUC: 0.3827
  Emax: 11.05
RL cell line
  AUC: 0.2366
